Laboratory results: US20260263517A1, “THERAPEUTIC METHODS WITH TARGET-LINKED SMALL MOLECULES AND ANTI-TARGET CAR T CELLS” (Seattle Children's Hospital (dba Seattle Children's …, priority 2022, published 2026)
Entries after “also recorded” stand apart in the source; their conditions may differ.

Test system: HOS-FRα tumors
Assay: subcutaneous HOS-FRα osteosarcoma xenograft, E2 CAR-T cells plus EC17
Format: in vivo
Text: A dosing regimen is shown in FIG. 21 which includes administration of about 5 million E2 CAR T cells at day −3; administration of EC17 at days 0, 3, 7, 14, 17, 21, 28, 31 and 35. Sequential escalating doses of EC17 will be administered under the following rules: If no CRS or neurotoxicity, advance through EC17 dose escalation as planned. If CRS grade≤2, administer all subsequent EC17 doses at die Sequence level that provoked the non-serious CRS in the stone cycle. If CRS grade>2, cancel further EC17 doses in the current Cycle, and commence all subsequent Cycles at the next highest Sequence below that which provoked the severe CRS (sCRS).
HOS-FRα (i.e. HOS-143b-LV-FRα) is a subclone of HOS-143B (ATCC CRL-8303) stably transfected with human FRα. HOS-143B was originally derived from a […] with osteosarcoma. The tumor cells were grown in folate-deficient RPMI 1640 with 5% FBS at 37° C. in a 5% CO2 humidified atmosphere. For the in-vivo study, tumor cells were inoculated subcutaneously at 1×10^6 cells per animal.
EGFRt-sorted anti-FITC E2 scFv-CAR T cells were frozen in a T-cell freezing medium. Upon arrival, vials of frozen CAR-T cells were immediately stored at −80° C. The CAR-T cells were quickly thawed at 37° C., washed twice with PBS, and used for animal injection at 6 million viable EGFRt+E2 CAR-T cells (CD4/CD8 at ~1:1) per animal. A small aliquot was taken on the day infusion for flow cytometric analysis of E2-CAR T-cell phenotypes.
EC17 dosing solutions were prepared when dosing began by weighing appropriate amounts of each compound, reconstituting in PBS, pH 7.4, sterile filtering the drug solution through a 0.22 pm PVDF syringe filter, and freezing aliquots for each day of dosing at −20° C.
All EC17 doses were given towards the end of day (3-4 PM) to allow potential CRS (cytokine release syndrome) to develop overnight.
Tumor growth, body weight, and overall assessment: Tumor sizes were monitored 2-3 times/week and body weight measured 2-3 times/week. On the days immediately after any EC17 dose, body weight measurement was taken daily and attention was given to gross animal morphology and behavior.
Euthanasia: Euthanasia was performed when mice had lost ≥20% of their weight, when tumors reached ≥1500 mm^3. Euthanasia was also performed if mice lost a lot of weight in a short duration (e.g., due to severe head-tilt), or when they approached moribund conditions per CRS grading system.
All animal care and use were performed according to NIH guidelines and in compliance with protocols approved by the Purdue University Animal Use and Care Committee. Female 4 to 5-week-old NOD/SCID gamma (NSG™) mice (stock number:005557) were purchased from The Jackson Faboratory (Bar Harbor, ME). Unless specifically indicated, all animals were maintained on a FA-deficient diet (TestDiet, St. Fouis, MO) upon arrival and throughout the study. To establish subcutaneous xenografts, MDA-MB-231 and HOS-FRα were implanted in the right flank region at 2.5×10^6 and 1×10^6 cells per animal, respectively. For intravenous xenografts, THP1-FRβ) cells were inoculated at 5×10^6 cells per animal. Subcutaneous tumors were measured 2-3 times per week with a caliper and calculated using the ellipsoidal formula (length×width2)/2. […] All animal doses (CAR-T cells, EC17, sodium fluorescein) were given intravenously.
In a therapeutic setting, EC17 CAM can be given before or after CAR-T cell injection. […]

[1] = E2 CAR-T cells + EC17 5/100/1000 nmol/kg, M/Th/M (Cohort 2)

Compound: NC1=NC2N=CC(CNc3ccc(C(=O)N[C@@H](CCC(=O)NCCNC(=S)Nc4ccc(-c5c6ccc(=O)cc-6oc6cc(O)ccc56)c(C(=O)O)c4)C(=O)O)cc3)=NC2C(=O)N1 (some centres unmarked) [EC17, FA-(γ)-ethylenediamine-FITC]
- body weight loss or CRS [1]: without body weight loss or CRS
- tumor volume of HOS-FRα tumors [1]: significant tumor regression
- CAR-T cell expansion in whole blood (flow cytometry) (EC17 dose escalation M/Th/M, at euthanasia days 33 and 47): EC17-dependent CAR-T cell expansion up to day 47 but higher on day 33
- CRS or body weight loss (~6 million E2-CAR-T cells + EC17 5/10/100, 5/30/300, 5/50/500 nmol/kg in Cycles 1-3, M/Th/M): no CRS or body weight loss
- HOS-FRα tumor growth (~6 million E2-CAR-T cells + EC17 5/10/100, 5/30/300, 5/50/500 nmol/kg in Cycles 1-3, M/Th/M, 6-day break): significant delay in tumor growth within the first two cycles of treatment; also recorded: stopped responding to treatment in Cycle 3
